We go through 19 molecules from ChEMBL document CHEMBL1155324, “Synthesis and evaluation of a series of 2,4-diaminopyridine derivatives as potential positron emission tomography tracers for neuropeptide Y Y1 receptors” (Bioorg Med Chem Lett, 2009).

A short description of data set [1]: Octanol-water distribution coefficient log Dat pH 7.4 by water-plug aspiration/injection method combined with HPLC-mass spectrometry.
The target of data set [2] is T1, Neuropeptide Y receptor type 1 (Homo sapiens, UniProt P25929).
T1 sequence (P25929 whole entry): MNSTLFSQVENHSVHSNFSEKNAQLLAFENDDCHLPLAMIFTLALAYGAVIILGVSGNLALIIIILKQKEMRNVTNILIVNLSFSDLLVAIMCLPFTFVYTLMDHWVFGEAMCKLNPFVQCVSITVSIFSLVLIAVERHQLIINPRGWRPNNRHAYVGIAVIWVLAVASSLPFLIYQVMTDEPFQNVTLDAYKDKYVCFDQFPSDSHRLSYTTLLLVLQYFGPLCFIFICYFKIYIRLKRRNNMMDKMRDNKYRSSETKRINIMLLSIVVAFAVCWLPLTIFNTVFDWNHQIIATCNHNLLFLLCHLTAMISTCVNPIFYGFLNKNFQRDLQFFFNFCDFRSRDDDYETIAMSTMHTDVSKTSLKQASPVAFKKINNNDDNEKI
As to the kind of experiment: Displacement of [125I]-PYY from human NPYY1 receptor overexpressed in CHO cell membrane after 120 mins by scintillation counting. It is filed as cell membranes. For orientation: Loss of bound radioactivity is the signal in a displacement assay; it reports binding, not function.

The target of data set [3] is Neuropeptide Y receptor type 4 (Homo sapiens, UniProt P50391). As to the kind of experiment: Displacement of [125I]-PYY from human NPYY4 receptor.
Sequence of Neuropeptide Y receptor type 4 (P50391 whole entry): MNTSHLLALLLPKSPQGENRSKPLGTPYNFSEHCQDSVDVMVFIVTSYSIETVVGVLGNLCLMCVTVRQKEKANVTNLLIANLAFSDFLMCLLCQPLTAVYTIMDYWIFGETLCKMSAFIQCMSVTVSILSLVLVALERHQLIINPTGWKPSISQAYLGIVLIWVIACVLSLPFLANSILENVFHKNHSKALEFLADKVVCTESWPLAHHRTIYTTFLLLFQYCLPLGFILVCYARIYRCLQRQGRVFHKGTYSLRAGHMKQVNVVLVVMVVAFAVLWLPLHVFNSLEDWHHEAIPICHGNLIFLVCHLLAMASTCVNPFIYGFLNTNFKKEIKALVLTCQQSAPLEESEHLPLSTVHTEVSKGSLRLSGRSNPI
Data set [4] addresses T2, Neuropeptide Y receptor type 5 (Homo sapiens, UniProt Q15761).
T2 sequence (Q15761 whole entry): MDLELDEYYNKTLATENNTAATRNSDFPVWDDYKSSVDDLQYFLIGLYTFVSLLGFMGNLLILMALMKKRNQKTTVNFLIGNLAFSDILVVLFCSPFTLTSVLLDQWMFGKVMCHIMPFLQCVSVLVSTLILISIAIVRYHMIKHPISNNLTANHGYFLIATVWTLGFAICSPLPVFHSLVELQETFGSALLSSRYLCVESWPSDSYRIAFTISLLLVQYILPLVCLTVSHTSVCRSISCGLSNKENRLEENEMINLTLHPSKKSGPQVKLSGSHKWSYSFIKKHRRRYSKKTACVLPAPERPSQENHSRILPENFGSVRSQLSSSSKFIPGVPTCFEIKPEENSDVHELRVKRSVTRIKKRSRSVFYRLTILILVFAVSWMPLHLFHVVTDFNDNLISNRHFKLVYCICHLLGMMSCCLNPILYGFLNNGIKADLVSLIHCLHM
The experiment in a line: Displacement of [125I]-PYY from human NPYY5 receptor.

The target in data set [5] is T3, Neuropeptide Y receptor type 2 (Homo sapiens, UniProt P49146).
T3 sequence (P49146 whole entry): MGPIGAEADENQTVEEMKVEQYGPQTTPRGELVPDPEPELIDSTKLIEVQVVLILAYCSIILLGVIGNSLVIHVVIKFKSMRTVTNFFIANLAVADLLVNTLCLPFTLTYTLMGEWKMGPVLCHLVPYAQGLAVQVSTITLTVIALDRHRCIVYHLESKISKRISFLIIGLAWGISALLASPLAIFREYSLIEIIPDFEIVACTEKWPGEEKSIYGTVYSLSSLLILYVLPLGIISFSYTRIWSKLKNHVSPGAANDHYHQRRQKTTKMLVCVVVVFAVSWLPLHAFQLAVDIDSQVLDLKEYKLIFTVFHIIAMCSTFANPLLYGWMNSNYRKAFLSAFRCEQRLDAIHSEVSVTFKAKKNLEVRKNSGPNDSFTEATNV
As to the kind of experiment: Displacement of [125I]-PYY from human NPYY2 receptor.

A short description of data set [6]: Ratio of permeability from basal to apical side to apical to basal side of human KB-3-1 cells by scintillation counting. It is filed as ADME, cell-based.

Usually logD stands for lipophilicity at a set pH, counting ionised and neutral species. Consider `Cc1nc(SCc2cc(N3CCSCC3)cc(NCc3cccc(F)n3)n2)oc1C`, for which the logD in data set [1] is 3.5.
In general, IC50 refers to the point on the concentration scale where inhibition reaches its midpoint. `Cc1cccc(CNc2cc(N3CCOCC3)cc(CSc3nc4c(o3)CCCC4)n2)n1` returned a half-inhibitory concentration (IC50) in data set [2] of 0.46 nM. Further, the logD in data set [1] worked out at 3.5.
In data set [2], `Cc1cccc(CNc2cc(N3CCOCC3)cc(CSc3nc(C)c(C)s3)n2)n1` displayed an IC50 of 0.27 nM. Further, the logD in data set [1] stood at 2.9.
The like results for `Cc1cccc(CNc2cc(N3CCOCC3)cc(CSc3nc(C)c(CF)s3)n2)n1` were, in that order, 0.56 nM and 2.3.
In data set [2], `Cc1nc(SCc2cc(N3CCS(=O)(=O)CC3)cc(NCc3cccc(F)n3)n2)oc1C` showed an IC50 of 8 nM. Further, the logD in data set [1] stood at 2.3.
For `COCc1cccc(CNc2cc(N3CCOCC3)cc(CSc3nc(C)c(C)o3)n2)n1`, in that order: 4.3 nM and 2.8.
For `Cc1nc(SCc2cc(N3CCOCC3)cc(NCc3cccc(COCCF)n3)n2)oc1C`, in that order: 10 nM and 2.6.
For `Cc1cccc(CNc2cc(N3CCS(=O)(=O)CC3)cc(CSc3nc(C)c(C)o3)n2)n1`, in that order: 1.7 nM and 2.2.
Take `CCc1oc(SCc2cc(N3CCOCC3)cc(NCc3cccc(C)n3)n2)nc1C`: the IC50 in data set [2] worked out at 0.39 nM. Besides, the pH-dependent lipophilicity (logD) in data set [1] stood at 3.1.
In the case of `CCc1sc(SCc2cc(N3CCOCC3)cc(NCc3cccc(C)n3)n2)nc1CF`, the IC50 in data set [3], in data set [4] and in data set [5] was above 10000 nM in each case.
With `Cc1nc(SCc2cc(N3CCOCC3)cc(NCc3cccnc3F)n2)oc1C`, the IC50 in data set [2] was 7.7 nM. In data set [1], the logD amounted to 3.
In turn, `Cc1cccc(CNc2cc(N3CCOCC3)cc(CSc3nc(C)c(C)o3)n2)n1` returned a concentration for half-maximal inhibition (IC50) in data set [2] of 0.69 nM. In addition, in data set [1], the logD stood at 2.8.
In turn, `Cc1nc(SCc2cc(N3CCOCC3)cc(NCc3cccc(F)n3)n2)oc1C` gave a half-maximal inhibitory concentration (IC50) in data set [2] of 1.5 nM. In addition, in data set [1], the logD is 3.1.
The like results for `Cc1nc(SCc2cc(N3CCOCC3)cc(NCc3cccc(CF)n3)n2)oc1C` were, in that order, 1.8 nM and 3.
For `Cc1nc(SCc2cc(N3CCOCC3)cc(NCc3cccc(OCCF)n3)n2)oc1C`, in that order: 19 nM and 3.9.
The like results for `Cc1nc(SCc2cc(N3CCOCC3)cc(NCc3ccc(F)nc3)n2)oc1C` were, in that order, 21 nM and 3.
In turn, `Cc1nc(SCc2cc(N3CCOCC3)cc(NCc3ccnc(F)c3)n2)oc1C` had an IC50 in data set [2] of 5.2 nM. The log distribution coefficient (logD) in data set [1] was 3.1.
For `Cc1cccc(CNc2cc(N3CCSCC3)cc(CSc3nc(C)c(C)o3)n2)n1`, in that order: 0.16 nM and 3.6.
For orientation: efflux ratio means the permeability from basolateral to apical divided by that in the opposite direction, in the common usage. In the case of `Cc1cccc(CNc2cc(N3CCOCC3)cc(CSc3nc(CF)c(C)s3)n2)n1`, the efflux ratio in data set [6] was 1.8. In addition, the logD in data set [1] turned out to be 2.7. Also, the IC50 in data set [3], in data set [4] and in data set [5] was above 10000 nM each time.
